The values below come from ChEMBL document CHEMBL1782045, “Discovery, synthesis, and investigation of the antitumor activity of novel piperazinylpyrimidine derivatives” (Eur J Med Chem, 2011).

Assay [1] addresses T1, Hepatocyte growth factor receptor (Homo sapiens, UniProt P08581).
Description: Binding affinity to human unphosphorylated c-MET
The target of assay [2] is T1, Hepatocyte growth factor receptor. The source holds these as a separate data set.
Description: Binding affinity to human phosphorylated c-MET

T1 sequence (P08581 whole entry): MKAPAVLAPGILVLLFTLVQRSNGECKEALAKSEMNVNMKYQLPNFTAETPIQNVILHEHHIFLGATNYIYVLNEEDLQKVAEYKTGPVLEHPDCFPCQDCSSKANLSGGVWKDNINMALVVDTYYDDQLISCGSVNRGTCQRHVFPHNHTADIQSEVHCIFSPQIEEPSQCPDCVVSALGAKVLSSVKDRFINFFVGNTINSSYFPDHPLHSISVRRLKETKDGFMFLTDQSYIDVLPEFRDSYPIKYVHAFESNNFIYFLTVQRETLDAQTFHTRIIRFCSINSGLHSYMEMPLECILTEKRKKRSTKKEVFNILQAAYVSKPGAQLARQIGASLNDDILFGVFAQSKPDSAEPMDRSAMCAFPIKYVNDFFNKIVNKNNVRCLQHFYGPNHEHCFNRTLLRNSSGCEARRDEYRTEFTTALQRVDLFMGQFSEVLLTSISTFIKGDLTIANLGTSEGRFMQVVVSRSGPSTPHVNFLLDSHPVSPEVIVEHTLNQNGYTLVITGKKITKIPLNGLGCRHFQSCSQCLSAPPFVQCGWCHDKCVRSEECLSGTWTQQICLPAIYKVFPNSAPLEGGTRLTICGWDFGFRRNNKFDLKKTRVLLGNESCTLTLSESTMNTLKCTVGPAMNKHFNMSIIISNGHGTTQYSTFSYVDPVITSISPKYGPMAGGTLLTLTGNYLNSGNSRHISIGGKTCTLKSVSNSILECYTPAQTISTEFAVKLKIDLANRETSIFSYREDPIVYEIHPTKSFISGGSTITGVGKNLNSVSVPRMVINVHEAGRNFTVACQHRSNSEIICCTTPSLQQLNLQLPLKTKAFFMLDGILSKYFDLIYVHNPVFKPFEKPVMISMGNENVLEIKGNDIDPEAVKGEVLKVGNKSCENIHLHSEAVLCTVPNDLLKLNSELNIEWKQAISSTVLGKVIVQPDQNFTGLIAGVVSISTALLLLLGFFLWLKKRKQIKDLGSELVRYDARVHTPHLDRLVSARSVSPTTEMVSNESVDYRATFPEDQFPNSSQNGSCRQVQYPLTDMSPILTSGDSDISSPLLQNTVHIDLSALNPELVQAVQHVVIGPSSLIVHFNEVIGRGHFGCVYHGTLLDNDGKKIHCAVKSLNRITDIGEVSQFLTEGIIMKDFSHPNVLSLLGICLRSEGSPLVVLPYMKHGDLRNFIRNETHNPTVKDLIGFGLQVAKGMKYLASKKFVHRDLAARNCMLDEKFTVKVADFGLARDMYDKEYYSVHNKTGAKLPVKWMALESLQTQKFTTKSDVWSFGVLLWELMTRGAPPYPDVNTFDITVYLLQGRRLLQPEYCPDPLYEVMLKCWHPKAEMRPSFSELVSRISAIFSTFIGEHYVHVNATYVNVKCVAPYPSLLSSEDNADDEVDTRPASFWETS

Take `CN(C[C@@H]1COCCO1)S(=O)(=O)Nc1ccc2ccc3ncc(-c4cnn(C)c4)cc3c(=O)c2c1` [MK-2461]: the Kd in assay [1] is 27.2 nM; in assay [2], 4.4 nM.
